# Reference: publication PMC8968665, “Verteporfin is a substrate-selective γ-secretase inhibitor that binds the amyloid precursor protein transmembrane domain” (The Journal of Biological Chemistry, 2022)
# Entries after “also recorded” stand apart in the source; their conditions may differ.
# What was measured:
# [1] = system: T1, C99; assay: 2D 1H,1H-NOESY of 1:1 verteporfin:C99 mixture; type: binding, human; details: 300 μM C99 and 300 μM verteporfin, 2.5% d27-LMPG
# T1 construct: the transmembrane 99 residue C-terminal (C99) domain; His tag (either the C-terminal hexa-His that is kept, or the N-terminal His of C99-NT2 removed by thrombin); made in house; host or cells: E. coli BL21DE3
# Experimental: A sample was prepared containing 300 μM C99 and 300 μM Verteporfin in 2.5% d^27-LMPG (deuterated alkyl chains), 50 mM d^4-Imidazole (deuterated imidazole), 100 mM NaCl, 0.5 mM EDTA, 1 mM DSS, pH 6.5 in 85% D2O. The ^1H-^1H NOESY experiment was recorded on the 800 MHz spectrometer with a mixing time of 120 ms, relaxation delay of 2 s, 4k × 1k data acquisition matrix, using the standard Bruker pulse program (noesyphpr).
# [2] = 1D 1H NMR titration of empty LMPG micelles by verteporfin; details: empty 2.5% LMPG micelles, acyl chain methylene peak shifts, n = 1; read-out: KD, one verteporfin binding to one detergent micelle model
# Source text: For this equation, Y is the total binding, Bmax is the maximum binding in the same units as Y, X is the added ligand in molar units, KD is the equilibrium dissociation constant in the same units as X. 1D NMR-binding curves were generated by directly inputting 1D chemical shift perturbations directly into the proper version of Equation 2. Peak height data, such as that quantified in Figures 4 and S4, were first generated using the peak-picking function in NMRFAM Sparky, and peak heights as a function of ligand concentration were used to generate a KD by addition into Equation 2.
# [3] = Verteporfin aggregation and LMPG micelle size (DLS, 1D 1H NMR); type: physicochemical
# Experimental: Samples were made according to NMR sample conditions. Solutions were first filtered with a 0.2 μm syringe filter then centrifuged at […] to remove insoluble debris. The solution was then added to the inner chamber of the disposable DLS cuvette. The disposable DLS cuvette was capped and loaded in the DLS instrument. Experiments were carried out at 25 °C. The DLS software (Dynamics 7.5 software; Wyatt Technologies) calculates an apparent hydrodynamic radius (Rh) via the Stokes–Einstein equation (Equation 6):(6) Rh=kT/6πηDt where k is Boltzmann’s constant, T is the absolute temperature, η is sample viscosity, and Dt is the diffusion coefficient. The apparent molecular weight of the detergent or verteporfin particles was calculated in the Dynamics software, as based on the measured apparent radius of hydration, using the assumption that the density of the particle was similar to that of a globular protein.
# [4] = system: T1, C99; assay: Native ion mobility–mass spectrometry of C99–verteporfin mixtures; design: species or system human
# Source text: IM-MS data were collected using a Synapt G2 HDMS IM-Q-ToF mass spectrometer (Waters), with a direct infusion nESI source set to positive ion mode. The instrument settings were tuned to generate intact C99–verteporfin complex ions while completely dissociating them from detergent LMPG micelles, including appropriately tuned settings for the sampling cone 80 V, trap cell accelerating potential 80 V, and the transfer cell accelerating potential 70 V. The trapping cell wave velocity and height were 116 m/s and 0.1 V, respectively. The IMS wave velocity and height were 250 m/s and 15 V, respectively. The transfer cell wave velocity and height were 300 m/s and 10 V. Prior to analysis, C99 in LMPG micelles at a protein concentration of 20 μM C99 and 100X CMC LMPG or DDMB samples were prepared by incubating 20 μM C99 with 100X CMC LMPG for 30 min, then titrating in DMSO or Verteporfin and incubating in the dark overnight. Verteporfin-binding buffer conditions were 200 mM Ammonium Acetate at pH 4.5.
# [5] = system: T2, Notch-1 TM/JM (residues 1721–1771); assay: TROSY NMR titration of Notch-1 TM/JM by verteporfin; type: binding
# T2 construct: flanked by its juxtamembrane segments (residues 1721–1771, “Notch-1 TM/JM”); made in house; host or cells: E. coli BL21DE3 Star, pET21b
# Experimental: (§1) A Bruker Avance III 600 MHz NMR spectrometer equipped with a cryoprobe (CPTCI) and automated sample changer (SampleJet) was used to collect NMR spectra. Sample details are described above. For high-throughput screening data collection, the ^15N-^1H BEST-TROSY (b_trosy3gpph.2) experiment with 64 scans for each of 96 increments and a relaxation delay of 200 ms was run at 318 K for a total data acquisition time of 35 min per sample. To achieve enhanced signal-to-noise ratio, follow-up titrations and control experiments were conducted using the BEST-TROSY pulse program with 200 scans per 96 increments at 318 K, for a total data acquisition time of 110 min per sample. Data were processed using Bruker Topspin 3.6 using a Gaussian window function with a line broadening of -10 and a Gaussian max of 0.1 in both dimensions. NMR data were then further processed and analyzed using NMR-FAM SPARKY, plotted using GraphPad Prism 9, and prepared for publication figures using Affinity Designer.
# 2D ^15 N-^1H HSQC NMR data used to calculate dissociations constant (KD) values by first normalizing 2D data using the established formula ([78]) (Equation 1):(1) δ(1H,15N)=√(1/2[δ2H+.14∗δ2N]) Where δ(1H,15N) is the square root of linear chemical shifts in each respective dimension, δH and δN with the Nitrogen normalization factor of 0.14.
# [6] = system: T3, C99 T761A; assay: TROSY NMR titration of C99 T761A mutant by verteporfin; type: binding, human; details: LMPG micelles, up to 300 µM verteporfin, n=1
# T3 construct: the transmembrane 99 residue C-terminal (C99) domain; hexa-His; made in house
# Experimental: as §1
# [7] = system: T4, C99 L723A; assay: TROSY NMR titration of C99 L723A mutant by verteporfin; type: binding, human; details: LMPG micelles, up to 300 µM verteporfin, n=1
# T4 construct: the transmembrane 99 residue C-terminal (C99) domain; hexa-His; made in house
# Experimental: as §1
substance,measurement,setting,value
verteporfin,direct intermolecular contact with C99 (NOESY cross-peaks),[1],confirms direct binding
same,Kd,[2],53 ± 21 µM
same,effect on LMPG micelle particle size (DLS),"[3]; 0 to 200 μM verteporfin, 2.5% LMPG, n = 3",only modest effects on micelle particle size; also recorded: insensitive
same,state of verteporfin in micelle-free aqueous solution (1H NMR line width),"[3]; 100 μM verteporfin, LMPG below CMC, pH 6.5",aggregate formation
same,LMPG concentration at which soluble verteporfin aggregates are fully dispersed (DLS),"[3]; 100 μM verteporfin, n = 3",50 mM
same,change in C99 oligomeric state (IM-MS),"[4]; LMPG and DDMB micelles, 0–50 μM verteporfin, low detergent conditions, n = 3",only a marginal increase in the population of dimeric C99; also recorded: does not undergo any significant change in oligomeric state
same,covalent modification of C99 (mass by IM-MS),[4]; samples kept in the dark,no covalent modification
same,binding to Notch-1 TM/JM,[5]; D6PC/DMPC bicelles,only minor spectral changes at very high concentrations; also recorded: does not bind
same,binding to Notch-1 TM/JM,[5]; DDMB micelles,little change in the spectrum of Notch-1 until a concentration of 300 μM; also recorded: does not bind
same,binding to Notch-1 TM/JM,"[5]; LMPG micelles, same conditions as C99 titration",does not bind; also recorded: only minor perturbations of Notch resonances
same,binding to Notch-1 transmembrane domain,[5]; general statement,did not bind; also recorded: not to bind
same,binding to C99 T761A,[6],complete lack of binding; also recorded: binding was disrupted
same,binding to C99 L723A,[7],nearly complete lack of binding; also recorded: binding was disrupted
